Key:
dLight1.3bL143I = dLight1.3bL143I (Homo sapiens, UniProt P21728, L143I); assay: cell-based; assay type: cell-based
Experimental: Cells were transfected at 50–60% confluency in glass-bottomed dishes (either individually or in 24-well plates) using the Effectene transfection kit (Qiagen) according to manufacturer instructions, and imaged 24–48 h after transfection. The Flp-In™ T-REx™ 293 cells (Thermo Fisher) with a stably integrated dLight1.3b cassette[48] were cultured as follows: the cells were cultured using HEK293T cell medium with the addition of Blasticidin (15 µg/ml) and Hygromycin B (200 µg/ml). To induce the expression of dLight1.3b, doxycycline (500 ng/ml) was added to the culture medium for 24–48 hours. Before imaging, cells were rinsed with 1 mL of Hank’s Balanced Salt Solution (HBSS, Life Technologies) supplemented with Ca^2+ (2 mM) and Mg^2+ (1 mM), and imaged at room temperature with a final HBSS volume of either 100 µL for each individual 1.5 cm glass bottom dish, or 500 µL for 24-well plates. Time-lapse imaging was performed on an inverted Zeiss LSM 800 confocal microscope using a 488 nm laser and a 40X oil-based objective. During imaging, ligands were added in bolus on the cells using a micropipette to reach the final specified concentrations of ligand over the cells. For quantification, except otherwise noted, regions of interest (ROI) were selected manually using the threshold function of Fiji to isolate the cell membrane. Sensor response (∆F/F) was calculated as the following: (F(t)-F_base)/F_base with F(t) being the ROI fluorescence value at each time point (t), and F_base being the mean fluorescence of the 10-time points immediately prior to ligand addition.

msDRD2 = target: T1, msDRD2 (Mus musculus, UniProt P61168); assay: NanoBit complementation assay of mini-Gi recruitment; assay type: cell-based
T1 construct: expressed in transfected cells; host or cells: HEK293T
T1 sequence (P61168 whole entry): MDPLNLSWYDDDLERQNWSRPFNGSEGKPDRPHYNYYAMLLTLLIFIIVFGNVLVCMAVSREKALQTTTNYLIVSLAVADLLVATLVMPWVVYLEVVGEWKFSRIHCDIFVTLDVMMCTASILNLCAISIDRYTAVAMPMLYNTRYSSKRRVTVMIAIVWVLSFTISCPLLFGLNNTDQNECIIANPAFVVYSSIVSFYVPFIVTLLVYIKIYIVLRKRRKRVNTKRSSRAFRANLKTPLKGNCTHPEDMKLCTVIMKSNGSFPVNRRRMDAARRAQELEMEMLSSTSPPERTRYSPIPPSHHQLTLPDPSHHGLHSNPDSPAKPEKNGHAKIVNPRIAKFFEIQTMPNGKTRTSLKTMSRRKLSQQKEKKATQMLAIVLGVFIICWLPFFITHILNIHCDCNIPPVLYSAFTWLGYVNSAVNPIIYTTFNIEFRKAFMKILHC
Experimental: To measure the effect of DETQ on mini-G protein recruitment by different GPCRs we used a Nanoluciferase (NanoBit)-based complementation assay[26],[27]. For this HEK293T cells were seeded in six-well plates (Techno Plastic Products) at a density of 300,000 cells per well and co-transfected with plasmids encoding either hmDRD1, msDRD1, msDRD2, msDRD5, msADRA1a, msβ2AR or ms5HT6 carrying a C-terminally fused SmBiT, in combination with the corresponding mini-G protein probe[78] (mini-Gs: for DRD1, DRD5, β2AR, 5HT6R; mini-Gq: for ADRA1a; or mini-Gi: for DRD2), which were N-terminally fused to LgBiT, in a 1:1 DNA ratio using Effectene transfection reagent (Qiagen). […] The plate was incubated at 37 °C for 30 min, before the luminescence signal was measured at 37 °C using a Tecan Spark plate reader before and after the manual addition of 25 µl of either ligand solution (final concentrations ranging from 1 nM to 100 µM), pure Fluorobrite-DMEM or 25 µl of a DETQ solution (1 µM final concentration).
For in vitro luminescence assays, ligand traces were divided by buffer traces, the area under the curve for each trace was calculated using GraphPad Prism, values were normalized and fitted as dose response curve. […] The statistical significance was determined using Welch’s ANOVA followed by Dunnett’s multiple comparison test (comparison of ligand or vehicle to ligand). […]

[1] = tested on: 14 other human targets (including D5, D2, Beta-1, Beta-2 and 5-HT6); set-up: method as in Hao et al., 2019; details: at 10 uM; ref Hao et al., 2019; cited from earlier work

dLight1.3bL143I, sequence (P21728 whole entry L143I, looked up): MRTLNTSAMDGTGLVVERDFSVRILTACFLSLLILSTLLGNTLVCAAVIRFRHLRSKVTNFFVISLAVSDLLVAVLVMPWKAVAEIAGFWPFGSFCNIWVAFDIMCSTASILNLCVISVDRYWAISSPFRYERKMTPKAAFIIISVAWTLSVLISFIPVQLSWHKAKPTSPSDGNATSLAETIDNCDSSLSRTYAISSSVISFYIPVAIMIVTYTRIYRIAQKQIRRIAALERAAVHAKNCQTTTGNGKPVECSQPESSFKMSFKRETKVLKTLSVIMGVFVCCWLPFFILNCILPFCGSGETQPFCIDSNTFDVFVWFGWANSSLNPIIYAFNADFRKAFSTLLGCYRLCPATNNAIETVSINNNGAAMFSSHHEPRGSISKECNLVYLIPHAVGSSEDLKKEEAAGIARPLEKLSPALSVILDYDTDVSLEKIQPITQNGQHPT

In the case of C[C@H]1c2cccc(C(C)(C)O)c2C[C@H](CO)N1C(=O)Cc1c(Cl)cccc1Cl [DETQ, 2-(2,6-dichlorophenyl)-1-((1S,3R)-3-(hydroxymethyl)-5-(2-hydroxypropan-2-yl)-1-methyl-3,4-dihydroisoquinolin-2(1H)-yl)ethan-1-one], the Kb (dLight1.3bL143I) is reported as 17.7 nM, the “sensor response to DETQ in the absence of DA” value (dLight1.3bL143I) is reported as “could not trigger a response” and the α factor (dLight1.3bL143I) is reported as 10.8. The “maximal fluorescent response to a saturating concentration of DA” value (dLight1.3bL143I; DA 100 µM, wide range of DETQ concentrations) was “not affected”, the “increase in DETQ potency versus dLight1.3b” value (dLight1.3bL143I; human, hek293 cells) was 3 fold and the “agonist mode: direct agonist effect” value (msDRD2; DETQ 1 µM alone) was “no direct agonist effect”. For the same compound, the “allosteric modulator mode: effect on agonist dose-response” value (msDRD2; DETQ 1 µM, DA) was “No allosteric effect” and the “activity in potentiator mode” value [1] was “no activity was found”.
